According to ChEMBL document CHEMBL1156697, “Investigations concerning the COX/5-LOX inhibiting and hydroxyl radical scavenging potencies of novel 4,5-diaryl isoselenazoles” (Eur J Med Chem, 2008):
Each block holds one compound with its values, some of them ahead of it.

Experiments:
[1] = target: T1, Prostaglandin G/H synthase 1 (Bos taurus, UniProt O62664); assay: Inhibition of bovine COX1
T1 sequence (O62664 whole entry): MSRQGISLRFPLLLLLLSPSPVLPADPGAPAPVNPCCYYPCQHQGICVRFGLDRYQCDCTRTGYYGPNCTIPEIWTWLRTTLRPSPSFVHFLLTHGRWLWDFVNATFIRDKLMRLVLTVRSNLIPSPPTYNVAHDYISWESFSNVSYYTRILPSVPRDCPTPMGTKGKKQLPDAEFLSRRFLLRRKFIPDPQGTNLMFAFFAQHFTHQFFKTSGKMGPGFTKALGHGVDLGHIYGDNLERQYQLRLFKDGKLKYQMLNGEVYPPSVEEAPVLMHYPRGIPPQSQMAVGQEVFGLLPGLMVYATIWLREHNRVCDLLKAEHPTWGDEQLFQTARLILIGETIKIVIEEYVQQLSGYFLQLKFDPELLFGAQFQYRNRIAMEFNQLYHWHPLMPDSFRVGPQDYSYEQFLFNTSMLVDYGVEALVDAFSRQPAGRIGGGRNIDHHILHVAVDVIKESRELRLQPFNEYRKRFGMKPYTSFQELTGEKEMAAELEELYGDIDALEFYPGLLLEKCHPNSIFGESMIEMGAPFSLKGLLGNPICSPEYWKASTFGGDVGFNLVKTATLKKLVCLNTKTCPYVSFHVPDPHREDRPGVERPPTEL

[2] = target: T2, Prostaglandin G/H synthase 2 (Homo sapiens) (UniProt P35354); assay: Inhibition of human COX2 at 10 uM
T2 sequence (whole entry): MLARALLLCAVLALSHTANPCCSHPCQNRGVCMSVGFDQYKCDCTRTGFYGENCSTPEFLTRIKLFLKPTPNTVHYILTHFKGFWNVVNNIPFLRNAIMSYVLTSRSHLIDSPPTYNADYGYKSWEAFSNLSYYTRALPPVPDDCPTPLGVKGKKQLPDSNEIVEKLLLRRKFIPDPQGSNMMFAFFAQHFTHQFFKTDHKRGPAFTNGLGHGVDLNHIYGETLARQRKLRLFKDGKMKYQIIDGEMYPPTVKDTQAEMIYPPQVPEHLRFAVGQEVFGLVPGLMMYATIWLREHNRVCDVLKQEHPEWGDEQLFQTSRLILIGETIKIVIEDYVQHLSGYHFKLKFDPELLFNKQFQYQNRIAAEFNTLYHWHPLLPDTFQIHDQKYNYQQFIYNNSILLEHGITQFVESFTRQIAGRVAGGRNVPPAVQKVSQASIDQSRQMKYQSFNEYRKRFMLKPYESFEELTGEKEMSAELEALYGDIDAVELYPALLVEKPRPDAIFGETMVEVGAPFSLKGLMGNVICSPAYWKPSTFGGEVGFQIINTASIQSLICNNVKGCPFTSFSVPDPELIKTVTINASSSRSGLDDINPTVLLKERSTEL

[3] = target: T3, Prostaglandin G/H synthase 1 (Bos taurus) (UniProt O62664); assay: Inhibition of bovine COX1 at 10 uM
T3 sequence (whole entry): T1 sequence (O62664 whole entry)

[4] = target: T4, Prostaglandin G/H synthase 2 (Homo sapiens, UniProt P35354)
T4 sequence (P35354 whole entry): T2 sequence (whole entry)

[5] = Inhibition of bovine 5LOX
[6] = Antioxidant activity assessed as hydroxyl radical scavenging activity at 100 uM; type: functional

Compound: Cc1ccc(-c2cn[se]c2-c2ccc(Cl)cc2)cc1
IC50 [1]: 200 nM

Compound: COc1ccc(-c2cn[se]c2-c2ccc(Cl)cc2)cc1
IC50 [1]: 10 nM
inhibition [2]: 16%

Compound: Cc1ccc(-c2[se]ncc2-c2ccc(Cl)cc2)cc1
IC50 [1]: 50 nM

Compound: CS(=O)(=O)c1ccc(-c2[se]ncc2-c2ccc(F)cc2)cc1
inhibition [3]: 38%
IC50 [4]: 600 nM
IC50 [5]: 8000 nM
inhibition [6]: 34%

inhibition [3]: 31%
inhibition [2]: 10%
IC50 [5]: 1000 nM
Compound: CC(Cc1ccc(O)c(O)c1)C(C)Cc1ccc(O)c(O)c1 (stereo unspecified) [NORDIHYDROGUAIARETIC ACID]

Compound: COc1ccc(-c2cn[se]c2-c2ccc(OC)cc2)cc1
IC50 [1]: 6 nM
IC50 [4]: 8000 nM
inhibition [6]: 14%

IC50 [5]: 180 nM
Compound: CC1(C)Cc2c(-c3ccccc3)c(-c3ccc(Cl)cc3)c(CC(=O)O)n2C1 [LICOFELONE]

Compound: Clc1ccc(-c2cn[se]c2-c2ccc(Cl)cc2)cc1
IC50 [1]: 200 nM

Compound: O=c1c2ccccc2[se]n1-c1ccccc1 [EBSELEN]
IC50 [1]: 2100 nM

Compound: COc1ccc(-c2[se]ncc2-c2ccc(Cl)cc2)cc1
IC50 [1]: 20 nM
inhibition [2]: 17%

Compound: Cc1ccc(-c2cc(C(F)(F)F)nn2-c2ccc(S(N)(=O)=O)cc2)cc1
inhibition [6]: 27%

Compound: COc1ccc(-c2[se]ncc2-c2ccc(C)cc2)cc1
IC50 [1]: 20 nM
